According to article PMC10920779, “Targeting P2Y14R protects against necroptosis of intestinal epithelial cells through PKA/CREB/RIPK1 axis in ulcerative colitis” (Nature Communications, 2024):
Where “and” joins values, the source holds several entries; their conditions need not be identical. Equal values may be shown once.

What was measured:
[1] = test system: DSS-induced colitis in P2Y14R△IEC mice; test: DSS-induced colitis in P2Y14R△IEC mice treated with HDL-16 or PPTN; assay type: in vivo, mouse; design: DAI: scale not given here; conditions: for DAI / Weight: P2Y14R fl/fl vil-cre mice + DSS
Source text: (§1) Male, 7-8-week-old, P2Y14R^fl/fl Vil-cre (P2Y14R^∆IEC), P2Y14R^fl/fl Lyz2-cre and WT mice with C57BL/6 J background were used to establish experimental (acute) colitis model. P2Y14R^fl/fl C57BL/6 J mice were used as control for P2Y14R^fl/fl Vil-cre (P2Y14R^∆IEC) and P2Y14R^fl/fl Lyz2-cre mice. WT C57BL/6 J mice were used for the pharmacological study of HDL-16. Colitis was induced by dextran sodium sulfate (DSS; 36-50 kDa; 3% w/v; MP Biomedicals, Solon, Ohio, USA), added to the drinking water ad libitum for 7 days. Control mice received standard drinking water. The Disease Activity Index (DAI) was evaluated daily as described previously. After 7 days of DSS treatment, mice were euthanized by carbon dioxide inhalation and the colons were measured and then processed for histological analyses, homogenized to extract protein or RNA.
The DSS group and the P2Y14R^△IEC + DSS group were rectally administered with 100 μl vehicle (saline with 0.1% DMSO). The low-dose group of mice was given 10 μM HDL-16, 100 μl per mouse, while the high-dose group was given 20 μM HDL-16, 100 μl per mouse. […]
immunoblotting with corresponding antibodies in the IECs from DSS treated mice with HDL-16 or […]
the entire experimental period. d Body weight change and disease activity index evaluation of mice change during the disease process (n = 6 mice per group). e Effects of P2Y14R antagonists on P2Y14R△IEC mice mucosal barrier function as measured by serum levels of FITC-dextran based on intestinal permeability methods (n = 6 mice per group). f The length of colons from mice 7 days after DSS treatment (n = 6 mice per group). g The H&E staining in the colon tissues of DSS-treated mice (Scale bar = 200 μm). h The immunofluorescent images of colon tissues stained with Claudin-1, Occludin and ZO-1, the principal components of tight junction (Scale bar = 200 μm). i Phosphorylation MLKL as well as its protein levels were analyzed by immunoblotting with corresponding antibodies in colon tissues (n = 5 mice per group). The data represent the mean ± SD for b, e, f and i, the data represent the mean ± SEM for d. The p-values were determined by One-way analysis of variance (ANOVA) with Tukey multiple comparison test for e, f, i, and two-way analysis of variance (ANOVA) with Šídák's multiple comparisons test for b and d. For a, g and h, […]

[2] = test system: DSS-induced colitis in mice; test: DSS-induced acute colitis in WT mice, P2Y14R antagonist treatment (body weight, DAI, colon length, H&E, tight junction staining, TEM); assay type: in vivo, mouse; design: DAI: scale not given here; conditions: for DAI / Weight (%): DSS-treated mice
Source text: as §1
The DSS group and the P2Y14R^△IEC + DSS group were rectally administered with 100 μl vehicle (saline with 0.1% DMSO). The low-dose group of mice was given 10 μM HDL-16, 100 μl per mouse, while the high-dose group was given 20 μM HDL-16, 100 μl per mouse.
For TEM, harvest fresh tissue blocks quickly within 1-3 minutes. […] Then tissues avoid light post fixed in 1% OsO4 in PBS for 2 h at room temperature. […] The samples were moved into a 65°C oven to polymerize for more than 48 h. Ultrathin sections were cut to 60-80 nm thin with an ultramicrotome UCT6 (Leica Microsystems, Vienna) and placed on 150 meshes cuprum grids (formvar carbon coated Cu grids) with formvar film. […] Micrographs were obtained with a Jeol JEM 1400 plus electron microscope (Jeol, USA) operating at 80 kV.
For histological assessment of colitis, colon specimens were fixed in 4% paraformaldehyde (PFA) and embedded in paraffin. Five-micrometer tissue sections were stained with H&E and examined for evidence of colitis as described previously. After the paraffin sections conventional dewaxing to water, put the sections into Hematoxylin solution for 3-5 min and treat the sections with Hematoxylin Differentiation solution. […] Finally, dehydrated the sections with gradient alcohol and xylene, and sealed with neutral gum. Images were captured with a microscope (BX53, Olympus).
Immunofluorescence staining was performed using paraffin-embedded tissues as mentioned before. For immunofluorescence, the paraffin slides were deparaffinized, rehydrated, blocked and treated according to a standard protocol. […] All slides were incubated with DAPI (S2110, Solarbio) for 10 min to show the location of the nucleus. Images were captured with a confocal microscope (LSM 800, Zeiss).

[3] = Cytotoxicity by CCK8 analysis in HT-29 cells; assay type: cell-based, human; conditions: human, HT-29 cells, read-out: Cell viability (%)
Protocol: (§2) Necroptosis was induced by pretreatment with TNF‐α (20 ng·mL^−1) plus z‐VAD‐fmk (20 μM) and Smac mimetic (BV6, 2 μM) for 8 h, then stained cells with hematoxylin/eosin. For PI/Hoechst staining, cells were stained with PI and Hoechst for 20 min, then photographed with a fluorescence microscope and at least 300 cells were counted. The ratio of PI positive cells (%) = (PI positive cells) / (Hoechst positive cells) × 100%. For cell viability assay, CCK8 was added to the well and incubated for 1 − 2 h and then OD450 was measured using a multi-mode microplate reader (Cytation5, BioTek).

HT-29 cells = test: Cytotoxicity by CCK8 analysis in HT-29 cells; assay type: cell-based, human
Protocol: as §2

[4] = HDL-16-H (high dose), Day 1, individual mice
[5] = HDL-16-H (high dose), Day 2, individual mice
[6] = HDL-16-H (high dose), Day 3, individual mice
[7] = HDL-16-H (high dose), Day 4, individual mice
[8] = HDL-16-H (high dose), Day 5, individual mice
[9] = HDL-16-H (high dose), Day 6, individual mice
[10] = HDL-16-H (high dose), Day 7, individual mice
[11] = HDL-16-L (low dose), Day 1, individual mice
[12] = HDL-16-L (low dose), Day 2, individual mice
[13] = high-dose, 20 μM, 100 μl per mouse

Brc1ccc(NCc2nc3ccccc3o2)cc1 [HDL-16]
Weight loss, diarrhea, rectal bleeding, mucosal barrier injury, inflammatory cell infiltration in P2Y14R△IEC mice ([1]; DSS-fed P2Y14R△IEC mice): did not influence DSS-fed induced weight loss | p-MLKL in P2Y14R△IEC mice (western blot) ([1]; DSS-fed P2Y14R△IEC mice, colon tissues): did not affect DSS-induced upregulation of p-MLKL | DAI [1, 4]: 0 | Weight [1, 4]: 100% | DAI [1, 5]: 0 | Weight [1, 5]: 100% | DAI [1, 6]: 0 (5×) and 1 | Weight [1, 6]: 95% (2×) and 100% (4×) | DAI [1, 7]: 1 (5×) and 0 | Weight [1, 7]: 95% (3×) and 100% (2×) and 96% | DAI [1, 8]: 1 (2×) and 0 and 4 (2×) and 2 | Weight [1, 8]: 91% (2×) and 95% (2×) and 100% and 96% | DAI [1, 9]: 1 (3×) and 0 and 4 and 6 | Weight [1, 9]: 91% (3×) and 95% (2×) and 100% | DAI [1, 10]: 1 (2×) and 0 and 2 and 6 and 8 | Weight [1, 10]: 91% (4×) and 95% and 100% | DAI [1, 11]: 0 | Weight [1, 11]: 100% | DAI [1, 12]: 0 (5×) and 1 | Weight [1, 12]: 100% | Weight ([1]; HDL-16-L (low dose), Day 3, individual mice): 100% (5×) and 96% | Weight ([1]; HDL-16-L (low dose), Day 4, individual mice): 95% (4×) and 100% and 96% | Weight ([1]; HDL-16-L (low dose), Day 5, individual mice): 95% (4×) and 100% and 91% | Weight ([1]; HDL-16-L (low dose), Day 6, individual mice): 95% (2×) and 100% and 91% and 90% (2×) | Weight ([1]; HDL-16-L (low dose), Day 7, individual mice): 95% (3×) and 100% and 91% and 90% | Improvement of DSS colitis in P2Y14R△IEC mice ([1]; daily administration, DSS feeding P2Y14R△IEC mice): barely improvement | DAI ([2]; group -H (high dose), Day 1): 0 | Weight (%) ([2]; group -H (high dose), Day 1): 95.5056% and 101.124% and 106.742% | Weight (%) ([2]; group -H (high dose), Day 2): 95.5056% and 101.124% and 89.8876% and 106.742% | Weight (%) ([2]; group -H (high dose), Day 3): 100% and 94.1176% and 94.4444% and 94.7368% | Weight (%) ([2]; group -H (high dose), Day 4): 94.1176% and 88.2353% and 94.4444% and 88.8889% and 94.7368% | Weight (%) ([2]; group -H (high dose), Day 5): 94.1176% and 88.2353% and 94.4444% and 83.3333% and 89.4737% | Weight (%) ([2]; group -H (high dose), Day 6): 88.2353% and 82.3529% and 88.8889% and 83.3333% and 84.2105% | Weight (%) ([2]; group -H (high dose), Day 7): 88.2353% and 82.3529% and 88.8889% and 77.7778% and 78.9474% | DAI ([2]; group -L (low dose), Day 1): 0 | Weight (%) ([2]; group -L (low dose), Day 1): 100.935% and 95.3271% and 106.542% | Weight (%) ([2]; group -L (low dose), Day 2): 100.935% and 95.3271% and 89.7196% and 106.542% | Weight (%) ([2]; group -L (low dose), Day 3): 94.4444% and 94.1176% and 100% | Weight (%) ([2]; group -L (low dose), Day 4): 100% and 94.4444% and 94.1176% and 94.7368% | Weight (%) ([2]; group -L (low dose), Day 5): 100% and 94.4444% and 88.2353% and 89.4737% and 88.8889% and 94.1176% | Weight (%) ([2]; group -L (low dose), Day 6): 100% and 94.4444% and 88.2353% and 89.4737% | Weight (%) ([2]; group -L (low dose), Day 7): 94.4444% and 88.8889% and 94.1176% and 84.2105% and 88.2353% | Colitis symptoms ([2]; daily treatment, 3% DSS mice): significantly suppressed colitis symptoms | H&E staining: inflammatory infiltration and tissue damage [2, 13]: improved DSS-induced inflammatory infiltration and tissue damage | Tight junction protein expression (immunofluorescence) [2, 13]: stabilized the expression of tight junction protein Claudin-1, Occludin and ZO-1 | Body weight loss and DAI vs DSS-exposed mice ([2]; high-dose, 20 μM, 100 μl per mouse, rectal, daily, 3% DSS 7 days): dramatically less body weight loss and lower DAI | Colon length vs mice treated with DSS only ([2]; high-dose, 20 μM, 100 μl per mouse, rectal, 3% DSS 7 days): significantly longer | Comparison with the DSS-treated group (colitis parameters) ([2]; low-dose, 10 μM, 100 μl per mouse, rectal, 3% DSS 7 days): no significant difference | viability at 12 h, 1 nM ([3]; 1 nm): 108% | viability at 12 h, 1 µM ([3]; 1 μm): 117% | viability at 12 h, 10 µM ([3]; 10 μm): 103% | viability at 12 h, 100 nM ([3]; 100 nm): 109% | Cell viability (%) (HT-29 cells; 1 nm): 114% | Cell viability (%) (HT-29 cells; 1 μm): 116% | Cell viability (%) (HT-29 cells; 10 nm): 95% and 93% and 119% and 111% | Cell viability (%) (HT-29 cells; 10 μm): 115% and 106% and 113% | Cell viability (%) (HT-29 cells; 100 nm): 110% and 99% | Cytotoxicity in HT-29 cells (HT-29 cells; CCK8, 12 h, under the concentration of 10 μM): almost no cytotoxicity
